± gives the expanded uncertainty stated by the source.
Tests used:
[1] = refractive index (Na D-line) (dimensionless); conditions: 293.15 K; 101.33 kPa; Liquid; Standard Abbe refractometry
[2] = Liquid; for mass density: 298.15 K, 101.33 kPa
[3] = xn = mol fraction of the nth substance listed; conditions: 298.15 K, 101.33 kPa, Liquid

CCOC(=O)[C@H](C)O [(S)-(-)-ethyl lactate]
Conditions	mass density [kg/m3]	refractive index
[1]	–	1.4129 ± 0.0007
[2]	1032.94 ± 0.24	–

Conditions	vapor or sublimation pressure [kPa]
[2], 427.65 K	101.33 ± 0.34

CCOC(=O)[C@H](C)O [(S)-(-)-ethyl lactate] + CCO
[3]
Conditions	mass density [kg/m3]
x2 = 0	1032.94 ± 0.24
x2 = 0.1242	1018.42 ± 0.21
x2 = 0.2256	1004.73 ± 0.19
x2 = 0.312	991.37 ± 0.2
x2 = 0.3921	977.447 ± 0.23
x2 = 0.5236	950.894 ± 0.29
x2 = 0.5735	939.295 ± 0.31
x2 = 0.6735	913.364 ± 0.35
x2 = 0.7574	887.971 ± 0.4
x2 = 0.7941	875.598 ± 0.42
x2 = 0.8267	863.971 ± 0.44
x2 = 0.8559	852.975 ± 0.47
x2 = 0.9578	809.773 ± 0.55

CCCCO [butan-1-ol]
Conditions	mass density [kg/m3]	refractive index
[1]	–	1.3993 ± 0.0007
[2]	809.572 ± 0.55	–

Conditions	vapor or sublimation pressure [kPa]
[2], 390.88 K	101.33 ± 0.34

CCCCO [butan-1-ol] + CCCCOC(=O)[C@H](C)O
Conditions	mass density [kg/m3]
[3], x1 = 1	809.572 ± 0.55

CCCCOC(=O)[C@H](C)O [butyl L-lactate]
Conditions	mass density [kg/m3]	refractive index
[1]	–	1.4218 ± 0.0007
[2]	982.178 ± 0.21	–

[2]
Conditions	vapor or sublimation pressure [kPa]
390 K	10.62 ± 0.35
395 K	13.01 ± 0.36
400 K	15.8 ± 0.37
405 K	19.04 ± 0.38
410 K	22.79 ± 0.39
415 K	27.09 ± 0.41
420 K	32 ± 0.42
425 K	37.58 ± 0.44
430 K	43.87 ± 0.46
435 K	50.94 ± 0.48
440 K	58.84 ± 0.51
445 K	67.65 ± 0.54
450 K	77.41 ± 0.57
455 K	88.19 ± 0.6
460 K	100.05 ± 0.64
460.75 K	101.33 ± 0.65

CCCCOC(=O)[C@H](C)O [butyl L-lactate] + CCCCO
[3]
Conditions	mass density [kg/m3]
x2 = 0	982.178 ± 0.21
x2 = 0.0989	971.809 ± 0.23
x2 = 0.1806	962.459 ± 0.25
x2 = 0.2599	952.704 ± 0.27
x2 = 0.3973	933.863 ± 0.31
x2 = 0.5154	915.521 ± 0.35
x2 = 0.5669	906.818 ± 0.36
x2 = 0.6645	888.883 ± 0.4
x2 = 0.7069	880.503 ± 0.41
x2 = 0.7854	863.836 ± 0.44
x2 = 0.8546	847.901 ± 0.47
x2 = 0.9174	832.199 ± 0.5
x2 = 0.9728	817.297 ± 0.53

CCO [ethanol]
Conditions	mass density [kg/m3]	refractive index
[1]	–	1.3614 ± 0.0007
[2]	789.261 ± 0.59	–

Conditions	vapor or sublimation pressure [kPa]
[2], 351.44 K	101.33 ± 0.34

CCO [ethanol] + CCOC(=O)[C@H](C)O
Conditions	mass density [kg/m3]
[3], x1 = 1	789.261 ± 0.59

CC(C)OC(=O)[C@H](C)O [isopropyl (S)-2-hydroxypropionate]
Conditions	mass density [kg/m3]	refractive index
[1]	–	1.4105 ± 0.0007
[2]	986.942 ± 0.2	–

[2]
Conditions	vapor or sublimation pressure [kPa]
355 K	7.424 ± 0.34
360 K	9.156 ± 0.35
365 K	11.22 ± 0.36
370 K	13.68 ± 0.36
375 K	16.58 ± 0.37
380 K	20 ± 0.38
385 K	23.99 ± 0.4
390 K	28.63 ± 0.41
395 K	34.02 ± 0.43
400 K	40.24 ± 0.45
405 K	47.39 ± 0.47
410 K	55.59 ± 0.5
415 K	64.93 ± 0.53
420 K	75.56 ± 0.56
425 K	87.6 ± 0.6
430 K	101.19 ± 0.64
430.21 K	101.33 ± 0.64

CC(C)OC(=O)[C@H](C)O [isopropyl (S)-2-hydroxypropionate] + CC(C)O
[3]
Conditions	mass density [kg/m3]
x2 = 0	986.942 ± 0.2
x2 = 0.087	976.815 ± 0.22
x2 = 0.197	962.69 ± 0.25
x2 = 0.281	950.807 ± 0.27
x2 = 0.3554	939.404 ± 0.3
x2 = 0.542	906.498 ± 0.37
x2 = 0.5652	901.903 ± 0.37
x2 = 0.6921	874.425 ± 0.42
x2 = 0.7733	854.447 ± 0.46
x2 = 0.8365	837.361 ± 0.49
x2 = 0.8675	828.428 ± 0.51
x2 = 0.9249	810.801 ± 0.55
x2 = 0.9516	802.104 ± 0.56

CC(C)O [propan-2-ol]
Conditions	mass density [kg/m3]	refractive index
[1]	–	1.3774 ± 0.0007
[2]	785.428 ± 0.6	–

Conditions	vapor or sublimation pressure [kPa]
[2], 355.36 K	101.33 ± 0.34

CC(C)O [propan-2-ol] + CC(C)OC(=O)[C@H](C)O
Conditions	mass density [kg/m3]
[3], x1 = 1	785.428 ± 0.6

Source: the NIST ThermoML archive (doi:10.1016/j.fluid.2005.02.015)
